pIC50: −log10 of the molar value. Where two headings read alike, the source gives them in different places. A value given as a limit tells only on which side of the number the result lay.

Assay in all cases: Inhibition of TS-catalyzed reaction (tritium release from [5-3H]dUMP)
Assay [1] has as its target T1, hTS (Homo sapiens, UniProt P04818).
T1 construct: made in house
In kind it is biochemical. As to conditions: for pIC50: read-out: IC50 Assessment. From the text:
(§1) The recombinant human, rat, mouse, T. spiralis and C. elegans TS proteins were produced, purified and separated into phosphorylated and non-phosphorylated fraction, as previously described. TS activity was monitored, following tritium release from [5-^3H]dUMP, and its inhibition studied as earlier reported.

In assay [2] the target is T2, mTS (Mus musculus, UniProt P07607).
T2 construct: made in house
In kind it is biochemical. As to conditions: for remaining activity at 100 µM: compound 100 µM.
Excerpt: as §1

The target in assay [3] is T3, CeTS (Caenorhabditis elegans, UniProt Q9Y052).
T3 sequence (Q9Y052 1-315): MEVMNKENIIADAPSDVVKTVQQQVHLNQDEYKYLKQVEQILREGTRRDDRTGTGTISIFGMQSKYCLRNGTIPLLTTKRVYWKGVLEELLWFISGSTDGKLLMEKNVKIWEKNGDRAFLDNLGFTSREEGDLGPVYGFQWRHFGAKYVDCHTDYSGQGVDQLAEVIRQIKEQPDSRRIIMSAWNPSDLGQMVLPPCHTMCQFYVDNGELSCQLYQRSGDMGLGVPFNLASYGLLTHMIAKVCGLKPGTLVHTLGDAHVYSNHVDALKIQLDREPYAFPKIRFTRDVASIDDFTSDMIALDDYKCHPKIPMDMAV
In kind it is biochemical, C. elegans.
Excerpt: as §1

The target in assay [4] is TsTS (Trichinella spiralis, UniProt Q9NDD3). Type of assay: biochemical, T. spiralis. The settings on record: 20 µM dUMP, 250 µM meTHF; for pIC50: IC50 Assessment; for remaining activity at 100 µM: compound 100 µM; for remaining activity at 1000 µM: compound 1000 µM.
Excerpt: as §1

The mark [5] stands for this setting: compound 100 µM, 20 µM dUMP, 250 µM meTHF, read-out: % Remaining Activity.
Where [6] appears, read: compound 1000 µM, 20 µM dUMP, 250 µM meTHF, read-out: % Remaining Activity.
Where [7] appears, read: 20 µM dUMP, 250 µM meTHF, read-out: % Remaining Activity.
The mark [8] stands for this setting: 20 µM dUMP, 250 µM meTHF, read-out: IC50 Assessment.
The mark [9] stands for this setting: compound 10 µM, 20 µM dUMP, 250 µM meTHF.
Setting [10] is: IC50 Assessment, 20 µM dUMP, 250 µM meTHF.
Where [11] appears, read: compound 667 µM, 20 µM dUMP, 250 µM meTHF.
Where [12] appears, read: compound 50 µM, 20 µM dUMP, 250 µM meTHF.
Setting [13] is: compound 500 µM, 20 µM dUMP, 250 µM meTHF.

Chain of TsTS (Q9NDD3 entry or part of it): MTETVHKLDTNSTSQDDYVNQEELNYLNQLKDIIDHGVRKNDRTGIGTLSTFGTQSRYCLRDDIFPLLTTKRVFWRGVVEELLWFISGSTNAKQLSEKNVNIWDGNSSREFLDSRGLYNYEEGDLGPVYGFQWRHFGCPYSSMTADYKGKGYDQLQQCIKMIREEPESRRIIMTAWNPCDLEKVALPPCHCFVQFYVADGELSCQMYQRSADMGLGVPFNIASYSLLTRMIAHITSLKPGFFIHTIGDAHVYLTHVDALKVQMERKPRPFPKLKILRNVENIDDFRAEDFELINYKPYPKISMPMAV
T1 sequence (P04818 whole entry): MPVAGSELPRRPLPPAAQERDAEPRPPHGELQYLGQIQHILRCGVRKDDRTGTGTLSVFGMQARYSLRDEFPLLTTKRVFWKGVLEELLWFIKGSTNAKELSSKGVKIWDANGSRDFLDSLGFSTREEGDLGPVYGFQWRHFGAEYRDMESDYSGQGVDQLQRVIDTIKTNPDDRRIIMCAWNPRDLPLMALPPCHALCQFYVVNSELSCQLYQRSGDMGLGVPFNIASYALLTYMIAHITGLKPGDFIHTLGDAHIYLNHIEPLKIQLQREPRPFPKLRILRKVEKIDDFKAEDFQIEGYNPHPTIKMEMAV
T2 sequence (P07607 whole entry): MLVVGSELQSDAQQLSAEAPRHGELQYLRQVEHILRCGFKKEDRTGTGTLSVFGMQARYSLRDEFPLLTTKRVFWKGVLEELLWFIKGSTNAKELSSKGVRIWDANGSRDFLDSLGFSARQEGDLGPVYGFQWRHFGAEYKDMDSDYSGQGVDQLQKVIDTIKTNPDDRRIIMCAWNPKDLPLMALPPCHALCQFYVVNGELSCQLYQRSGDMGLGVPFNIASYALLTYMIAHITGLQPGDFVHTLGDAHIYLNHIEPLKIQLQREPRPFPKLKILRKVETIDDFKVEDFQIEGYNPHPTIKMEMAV

In the case of `CC(C)=CCc1c(O)ccc2c1OC(c1ccccc1)CC2=O` (racemic) [(±)-7-Hydro-xy-8-C-prenyl flavanone], the remaining activity at 100 µM in assay [1] (setting [5]) is 74%; in assay [2] (setting [7]), 71%; in assay [3] (setting [5]), 65%; in assay [4], 90%. In addition, the remaining activity at 1000 µM in assay [1] (setting [6]) is 7%; in assay [2] (setting [6]), 2%; in assay [3] (setting [6]), 3%; in assay [4], 25%. The pIC50 in assay [3] (setting [8]) and in assay [4] was less than 4.00 each time.

As for `CC1(C)CCc2cc3c(cc2O1)OC(c1ccccc1)CC3=O` (stereo not shown) [6-Chromane-O-7-flavanone (11), 6-Chromane-O-7-flavanone], the remaining activity at 10 µM in assay [1] (setting [9]) and in assay [3] (setting [9]) was 100% each time. Further, the remaining activity at 100 µM in assay [1] (setting [5]) is 37%; in assay [2] (setting [7]), 91%; in assay [3] (setting [5]) it was 24%. Further, the remaining activity at 1000 µM in assay [2] (setting [6]) stood at 10%; in assay [4], 85%. Besides, in assay [4], the pIC50 is less than 3.00.

`CC(=O)Oc1c(O)cc(-c2oc3cc(O)cc(O)c3c(=O)c2O)cc1O` [Myricetin-4′-OAc (7), Myricetin-4′-OAc]: the pIC50 is less than 3.00 in assay [1] (20 µM dUMP, 250 µM meTHF); less than 4.00 in assay [3] (setting [8]); less than 3.00 in assay [4]. Besides, the remaining activity at 100 µM turned out to be 56% in assay [1] (setting [5]), 61% in assay [2] (setting [7]) and 69% in assay [3] (setting [5]). In addition, the remaining activity at 1000 µM in assay [1] (setting [6]) is 31%; in assay [2] (setting [6]) it was 49%; in assay [3] (setting [6]), 28%; in assay [4], 66%.

As to `O=C(/C=C/c1ccc(O)c(O)c1)O[C@@H]1C[C@](O)(C(=O)O)C[C@@H](O)[C@H]1O` [Chlorogenic acid (3), Chlorogenic acid], the pIC50 was less than 3.00 in assay [1] (20 µM dUMP, 250 µM meTHF); less than 3.00 in assay [2] (setting [8]); less than 3.00 in assay [3] (setting [8]); less than 3.00 in assay [4]. The remaining activity at 1000 µM in assay [1] (setting [6]) was determined as 76%; in assay [2] (setting [6]), 83%; in assay [3] (setting [6]) it was 82%; in assay [4], 94%.

With `O=C(CCc1ccc(O)cc1)c1c(O)cc(O)cc1O` [Phloretin (4), Phloretin], the remaining activity at 100 µM in assay [1] (setting [5]) was determined as 86%; in assay [2] (setting [7]), 78%; in assay [3] (setting [5]), 82%. Further, the remaining activity at 1000 µM in assay [1] (setting [6]) stood at 31%; in assay [2] (setting [6]), 45%; in assay [3] (setting [6]), 48%; in assay [4], 61%. For the same molecule, the pIC50 in assay [3] (setting [8]) was less than 4.00; in assay [4], less than 3.00.

As for `CC12CCC3C(C1)c1c(cc(O)c(C(=O)c4ccccc4)c1OC3(C)C)O2` (stereo not shown) [Clusiacitran A (9), Clusiacitran A], the remaining activity at 100 µM in assay [1] (setting [5]) was found to be 89%; in assay [3] it was 88%. The remaining activity at 1000 µM in assay [1] (setting [6]) is 47%; in assay [2] (setting [6]), 62%; in assay [3], 44%; in assay [4], 95%. Further, the pIC50 in assay [2] (setting [10]) is less than 3.00; in assay [3] (setting [10]), less than 4.00; in assay [4], less than 3.00.

On to `CC1=C[C@]2(O)C(=O)[C@H](C)C[C@@H]3[C@H](CC[C@](C)(O)C[C@H]2C1=O)C3(C)C` [Jatrowediol (10), Jatrowediol], for which, in assay [1], the remaining activity at 100 µM stood at 100%. For the same molecule, the remaining activity at 1000 µM in assay [1] came to 43%; in assay [2] it was 80%; in assay [3] it was 77%; in assay [4], 95%. Also, the pIC50 in assay [2] (setting [10]), in assay [3] (setting [10]) and in assay [4] was less than 3.00 in each case.

Take `O=C(OCC1=C[C@@H](O)[C@@H]2C=CO[C@@H](O[C@@H]3O[C@H](CO)[C@@H](O)[C@H](O)[C@H]3O)[C@H]12)c1ccc(O)cc1` [Agnuside (8), Agnuside]: the remaining activity at 100 µM in assay [1] (setting [5]) was 90%; in assay [3] (setting [5]), 100%. The remaining activity at 1000 µM in assay [1] (setting [6]) was determined as 47%; in assay [2] (setting [6]) it was 72%; in assay [3] (setting [6]) it was 36%; in assay [4], 63%. The figures for the pIC50 in assay [2] (setting [8]), in assay [3] (setting [8]) and in assay [4] were less than 3.00, less than 4.00 and less than 3.00, respectively.

`COC(=O)/C=C/C(C)=C\C=C\C(C)=C\C=C\C=C(C)\C=C\C=C(C)\C=C\C(=O)O` [Bixin (6), Bixin]: the remaining activity at 667 µM in assay [1] (compound 667 µM (highest obtained concentration), 20 µM dUMP, 250 µM meTHF) was more than 100%; in assay [2] (setting [11]), 73%; in assay [3] (setting [11]) it was 46%; in assay [4] (compound 667 µM) it was 47%. The pIC50 in assay [2] (setting [8]) was less than 3.18. The remaining activity at 67 µM in assay [3] (compound 67 µM, 20 µM dUMP, 250 µM meTHF) was found to be 93%; in assay [4] (compound 67 µM), 76%.

With `O=C1c2c(O)cccc2C([C@@H]2O[C@H](CO)[C@@H](O)[C@H](O)[C@H]2O)c2cc(CO)cc(O)c21` (stereo partly shown) [Aloin (2), Aloin], the results for the remaining activity at 100 µM in assay [1] (setting [5]) and in assay [3] (setting [5]) were 94% and 83%, respectively. The remaining activity at 1000 µM in assay [1] (setting [6]) turned out to be 49%; in assay [2] (setting [6]), 95%; in assay [3] (setting [6]), 36%; in assay [4], 93%. Moreover, the pIC50 in assay [2] (setting [8]) was less than 3.00; in assay [3] (setting [8]), less than 4.00; in assay [4] it was less than 3.00.

For `COc1cc(/C=C/C(=O)CC(=O)/C=C/c2ccc(O)c(OC)c2)ccc1O` [Curcumin (1), Curcumin], the remaining activity at 50 µM in assay [1] (setting [12]) amounted to 86%; in assay [2] (setting [12]) it was 83%; in assay [3] (setting [12]), 84%. The remaining activity at 500 µM in assay [1] (setting [13]) turned out to be 20%; in assay [2] (setting [13]), 37%; in assay [3] (setting [13]) it was 30%; in assay [4] (compound 500 µM) it was 73%. In addition, the pIC50 in assay [4] is less than 3.30.

Regarding `COc1c(C2(O)COc3cc(O)cc(O)c3C2=O)ccc2c1C=CC(C)(C)O2` (stereo not shown) [Sophoronol (5), Sophoronol], the remaining activity at 100 µM came to 75% in assay [1] (setting [5]), 75% in assay [2] (setting [7]), 77% in assay [3] (setting [5]) and 74% in assay [4]. Also, the remaining activity at 1000 µM was 8% in assay [1] (setting [6]), 10% in assay [2] (setting [6]), 8% in assay [3] (setting [6]) and 35% in assay [4]. For the same molecule, the negative logarithm of the IC50 (pIC50) in assay [3] (setting [8]) and in assay [4] was less than 4.00 each time.

With `COc1cc(/C=C/C(=O)O[C@H]2[C@H](O[C@@H]3O[C@@H](C)[C@H](O)[C@@H](O)[C@H]3O)[C@@H](O)[C@H](OCCc3ccc(O)c(O)c3)O[C@@H]2CO)ccc1O` [Leucosceptoside A (13), Leucosceptoside A], the pIC50 is less than 3.00 in assay [1] (20 µM dUMP, 250 µM meTHF); less than 3.00 in assay [2] (setting [8]); less than 3.00 in assay [3] (setting [8]). In addition, the remaining activity at 1000 µM is 66% in assay [1] (setting [6]), 77% in assay [2] (setting [6]), 83% in assay [3] (setting [6]) and more than 100% in assay [4].

In the case of `COc1c(O)cc2oc(-c3ccccc3)c(O)c(=O)c2c1O` [Alnusin (12), Alnusin], the remaining activity at 100 µM in assay [1] (setting [5]) is 85%. Moreover, the remaining activity at 1000 µM was 30% in assay [1] (setting [6]), more than 100% in assay [2] (setting [6]), 80% in assay [3] (setting [6]) and more than 100% in assay [4]. Besides, the pIC50 in assay [3] (setting [8]) was less than 3.00.

The values above are taken from publication PMC7356228, “Alvaxanthone, a Thymidylate Synthase Inhibitor with Nematocidal and Tumoricidal Activities” (Molecules, 2020).
